The source of these data is US10329270B2, “Heteroaryl compounds as BTK inhibitors and uses thereof” (Merck Patent GmbH, priority 2013, dated 2019).

Each structure is given as a SMILES string.

T1 sequence (Q06187 whole entry): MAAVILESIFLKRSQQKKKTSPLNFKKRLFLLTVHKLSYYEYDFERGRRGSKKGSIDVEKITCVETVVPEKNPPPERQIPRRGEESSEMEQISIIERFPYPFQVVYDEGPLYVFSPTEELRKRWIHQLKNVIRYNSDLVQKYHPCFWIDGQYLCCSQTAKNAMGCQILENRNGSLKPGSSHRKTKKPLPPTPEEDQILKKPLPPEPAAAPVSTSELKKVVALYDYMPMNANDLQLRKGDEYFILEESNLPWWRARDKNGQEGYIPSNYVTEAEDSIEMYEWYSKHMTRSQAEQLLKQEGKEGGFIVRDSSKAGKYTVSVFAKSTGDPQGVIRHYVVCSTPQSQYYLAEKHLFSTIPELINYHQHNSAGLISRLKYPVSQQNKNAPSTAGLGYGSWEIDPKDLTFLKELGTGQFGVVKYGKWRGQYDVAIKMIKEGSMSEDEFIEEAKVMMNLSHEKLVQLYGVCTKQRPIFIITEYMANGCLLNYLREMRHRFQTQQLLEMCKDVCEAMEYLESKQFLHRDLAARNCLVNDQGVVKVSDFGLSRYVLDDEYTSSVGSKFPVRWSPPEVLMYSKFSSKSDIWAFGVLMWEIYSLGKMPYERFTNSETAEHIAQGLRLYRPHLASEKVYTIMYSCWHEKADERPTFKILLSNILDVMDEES

This test has as its target T1, full-length human BTK (Homo sapiens, UniProt Q06187).
T1 construct: 2.5× stocks of full-length human BTK (08-080); purchased CarnaBio USA, Inc., Natick, Mass; 08-080
As to the kind of experiment: Assay A: BTK IC50 Enzyme Assay (microfluidic off-chip mobility shift kinase assay). To be noted: full-length human BTK, kinKDR peptide substrate, incubated 90 min at 27 C; read-out: Assay A (Time Dependent BTK Enzyme Assay IC50). In kind it is biochemical. The method, then:
Assay A: BTK IC50 Enzyme Assay
The following describes a microfluidic, off-chip mobility shift kinase assay used to measure inherent potency of compounds against BTK enzyme. Compounds described by embodiments of the present invention were assayed using this protocol and the data from the same is recorded in Table 2 within the column labeled: “Time Dependent BTK Enzyme Assay IC50”.
Stopped reactions were monitored at −2 PSI, −3000 V/−700 V in a LabChip 3000 plate reader from Caliper Life Sciences, a PerkinElmer Company (Hopkinton, Mass.), and the activity was measured by off-chip mobility shift assay measuring the charge/mass difference between substrate and product resulting from peptide phosphorilation. IC50 and efficacy were determined by plotting log [Inhibitor] vs. % Activity in GeneData Screener (Basel, Switzerland). […] I<1 uM and II>1 uM.
A word on the IC50: it is the concentration at which inhibition is half-maximal. On to `C=CC(=O)NC1CCCN(c2ncc(C(N)=O)c(Oc3ccc(Oc4ccccc4)cc3)n2)C1` (centres unmarked) [Compound 204, 2-(3-acrylamidopiperidin-1-yl)-4-(4-phenoxyphenoxy)pyrimidine-5-carboxamide], for which the IC50 was in the range of 1000 to 5000 nM.

Take `C/C=C/C(=O)N1CCCC(Nc2cnc(Oc3ccc(Oc4ccccc4)cc3)c(C(N)=O)c2)C1` (centres unmarked) [Compound 215, 5-[1-((E)-But-2-enoyl)-piperidin-3-ylamino]-2-(4-phenoxy-phenoxy)-nicotinamide]: the IC50 is more than 5000 nM.

With `C=CC(=O)NC1CCN(c2cnc(Oc3ccc(Oc4ccccc4)cc3)c(C(N)=O)c2)CC1` [Compound 197], the IC50 lay within 100 to 1000 nM.

In the case of `C/C=C/C(=O)N1CCC(Nc2cnc(Oc3ccc(Oc4cccc(F)c4)cc3)c(C(N)=O)c2)C1` (centres unmarked) [Compound 229, 5-[1-((E)-But-2-enoyl)-pyrrolidin-3-ylamino]-2-[4-(3-fluoro-phenoxy)-phenoxy]-nicotinamide], the IC50 was in the range of 1000 to 5000 nM.

Regarding `N#CN1CCC(Nc2cnc(Oc3ccc(Oc4ccccc4)cc3)c(C(N)=O)c2)C1` (centres unmarked) [Compound 243, 5-[(1-cyanopyrrolidin-3-yl)amino]-2-(4-phenoxyphenoxy)pyridine-3-carboxamide], the IC50 was 100 to 1000 nM.

On to `C=CC(=O)N[C@H]1CCN(c2ccc(C(N)=O)c(Oc3ccc(Oc4ccc(C)cc4)cc3)n2)C1` [Compound 85, (S)-6-(3-acrylamidopyrrolidin-1-yl)-2-(4-(p-tolyloxy)phenoxy)nicotinamide], for which the IC50 lay within 100 to 1000 nM.

For `C=CC(=O)N1CCC(Nc2cnc(Oc3ccc(Oc4ccccc4)cc3)c(C(N)=O)c2)C1` (centres unmarked) [Compound 201, 5-(1-Acryloyl-pyrrolidin-3-ylamino)-2-(4-phenoxy-phenoxy)-nicotinamide], the IC50 was less than 100 nM.

On to `C=CC(=O)N1C2CCC1CC(c1ccc(C(N)=O)c(Oc3ccc(Oc4ccccc4)cc3)n1)C2` (centres unmarked) [Compound 71, 6-(8-Acryloyl-8-aza-bicyclo[3.2.1]oct-3-yl)-2-(4-phenoxy-phenoxy)-nicotinamide], for which the IC50 was less than 100 nM.

On to `C=CC(=O)N1CCC(c2cc(Oc3ccc(NC(=O)c4ccccc4)cc3)c(C(N)=O)cn2)C1` (centres unmarked) [Compound 184, 6-(1-Acryloylpyrrolidin-3-yl)-4-(4-benzamidophenoxy)nicotinamide], for which the IC50 lay within 1000 to 5000 nM.

Regarding `C=CC(=O)N[C@H]1CCN(c2cc(Oc3ccc(C(=O)Nc4ccccc4)cc3)c(C(N)=O)cn2)C1` [Compound 116, (S)-6-(3-acrylamidopyrrolidin-1-yl)-4-(4-(phenylcarbamoyl)phenoxy)nicotinamide], the IC50 lay within 1000 to 5000 nM.

For `C=CC(=O)N1CCC(c2cnc(C(N)=O)nc2)C1` (centres unmarked) [Compound 155], the IC50 is more than 5000 nM.

`C=CC(=O)N[C@@H]1CCN(c2ncc(C(N)=O)c(N)n2)C1` [Compound 144, 2-((R)-3-Acryloylamino-pyrrolidin-1-yl)-4-amino-pyrimidine-5-carboxylic acid amide]: the IC50 lay in the range of 100 to 1000 nM.

For the molecule `C=CC(=O)N[C@@H]1CCCN(c2nc(Nc3ccc(N4CCN(C)CC4)cc3)c(C(N)=O)cc2F)C1` [Compound 226, (R)-3-Acryloylamino-3′-fluoro-6′-[4-(4-methyl-piperazin-1-yl)-phenylamino]-3,4,5,6-tetrahydro-2H-[1,2′]bipyridinyl-5′-carboxylic acid amide], the IC50 was less than 100 nM.

As for `C=CC(=O)N[C@H]1CCN(c2ccc(C(N)=O)c(Oc3cnn(Cc4ccccc4)c3)n2)C1` [Compound 97], the half-inhibitory concentration (IC50) is 1000 to 5000 nM.

`C=CC(=O)N1CCC(c2ccc(C(N)=O)c(Nc3ccc(C(=O)N4CCN(C(=O)CCCCNC(=O)OC(C)(C)C)CC4)cc3)n2)CC1` [Compound 19]: the IC50 was less than 100 nM.

On to `C=CC(=O)N1CCC(c2ccc(C(N)=O)c(Oc3ccc(Oc4ccccc4)cc3)n2)C1` (centres unmarked) [Compound 70, 6-(1-acryloylpyrrolidin-3-yl)-2-(4-phenoxyphenoxy)nicotinamide], for which the IC50 was less than 100 nM.

`C=CC(=O)N1CCC(c2ncc(C(N)=O)c(Oc3ccc(Oc4ccccc4)cc3)n2)C1` (centres unmarked) [Compound 150, 2-(1-Acryloyl-pyrrolidin-3-yl)-4-(4-phenoxy-phenoxy)-pyrimidine-5-carboxylic acid amide]: the half-inhibitory concentration (IC50) lay within 100 to 1000 nM.
